We go through eight molecules from patent US11173151B2, “Substituted triazole derivatives and uses thereof” (BAYER AKTIENGESELLSCHAFT, priority 2017, dated 2021).

In assay [1] the target is T1, human V1a receptor (Homo sapiens, UniProt P37288).
T1 construct: expressed in transfected cells; host or cells: CHO K1 (ATCC), also stably transfected with a modified aequorin
The assay can be described thus: Cellular in vitro assay for determining vasopressin receptor activity, V1a receptor cell line (CHO, aequorin luminescence). It counts as cell-based. The settings on record: for IC50: CHO cell line transfected with human V1a receptor, [Arg]-vasopressin at EC50 concentration, read-out: IC50 hV1a; for ratio IC50 hV2/hV1a: selectivity ratio IC50 hV2 / IC50 hV1a. Put shortly: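 IC50 from inhibition of [Arg]-vasopressin (EC50 concentration)-evoked aequorin luminescence in CHO K1 cells, with 10-min compound pretreatment.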

The target in assay [2] is T2, human V2 receptor (Homo sapiens, UniProt P30518).
T2 construct: expressed in transfected cells; host or cells: CHO K1 (ATCC) expressing firefly luciferase under a CRE-responsive promoter
The assay can be described thus: Cellular in vitro assay for determining vasopressin receptor activity, V2 receptor cell line (CHO, CRE-luciferase). The settings on record: CHO cell line transfected with human V2 receptor; [Arg8]-vasopressin at EC50 concentration, 3 hours; read-out: IC50 hV2. In kind it is cell-based.

T1 sequence (P37288 whole entry): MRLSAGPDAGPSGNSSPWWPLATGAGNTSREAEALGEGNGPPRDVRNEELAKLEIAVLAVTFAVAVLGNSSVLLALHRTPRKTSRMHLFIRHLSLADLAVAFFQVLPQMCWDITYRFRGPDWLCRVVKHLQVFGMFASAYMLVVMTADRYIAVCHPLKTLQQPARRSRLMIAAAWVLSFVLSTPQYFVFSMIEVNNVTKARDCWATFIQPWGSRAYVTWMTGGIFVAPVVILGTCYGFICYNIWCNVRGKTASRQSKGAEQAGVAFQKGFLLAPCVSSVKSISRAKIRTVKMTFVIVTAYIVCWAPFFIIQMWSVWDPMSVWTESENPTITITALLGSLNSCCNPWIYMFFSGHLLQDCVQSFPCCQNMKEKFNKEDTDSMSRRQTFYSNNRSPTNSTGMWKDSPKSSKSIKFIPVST
T2 sequence (P30518 whole entry): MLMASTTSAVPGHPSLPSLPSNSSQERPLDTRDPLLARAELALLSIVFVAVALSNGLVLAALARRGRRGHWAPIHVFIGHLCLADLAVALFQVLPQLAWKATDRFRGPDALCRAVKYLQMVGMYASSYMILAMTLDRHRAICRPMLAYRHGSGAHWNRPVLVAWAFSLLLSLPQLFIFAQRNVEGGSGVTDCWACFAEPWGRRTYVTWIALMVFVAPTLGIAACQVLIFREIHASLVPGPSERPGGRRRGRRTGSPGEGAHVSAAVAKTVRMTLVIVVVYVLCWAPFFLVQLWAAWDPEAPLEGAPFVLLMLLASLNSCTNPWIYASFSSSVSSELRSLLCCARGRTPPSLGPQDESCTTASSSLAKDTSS

Broadly, the IC50 is the concentration that inhibits the measured activity by half. `O=C(NC1CCC1)c1ccccc1-n1cnc(Cn2nc(-c3ccc(Cl)cc3)n(C[C@H](O)C(F)(F)F)c2=O)n1` [Example 316, 2-[3-({3-(4-Chlorophenyl)-5-oxo-4-[(2S)-3,3,3-trifluoro-2-hydroxypropyl]-4,5-dihydro-1H-1,2,4-triazol-1-yl}methyl)-1H-1,2,4-triazol-1-yl]-N-cyclobutylbenzamide]: in assay [1], the IC50 came to 1.75 nM and the “ratio IC50 hV2/hV1a” value was determined as 145.7. For the same molecule, the IC50 in assay [2] was 255 nM.

For the molecule `O=C(Nc1c(F)cc(F)cc1F)c1ccccc1-n1cnc(Cn2nc(-c3ccc(Cl)cc3)n(C[C@H](O)C(F)(F)F)c2=O)n1` [Example 317, 2-[3-({3-(4-Chlorophenyl)-5-oxo-4-[(2S)-3,3,3-trifluoro-2-hydroxypropyl]-4,5-dihydro-1H-1,2,4-triazol-1-yl}methyl)-1H-1,2,4-triazol-1-yl]-N-(2,4,6-trifluorophenyl)benzamide], the IC50 in assay [1] is 2.3 nM; in assay [2], 285 nM. Moreover, the “ratio IC50 hV2/hV1a” value in assay [1] came out at 123.9.

With `O=C(NCC1CCCCC1)c1ccccc1-n1cnc(Cn2nc(-c3ccc(Cl)cc3)n(C[C@H](O)C(F)(F)F)c2=O)n1` [Example 318, 2-[3-({3-(4-Chlorophenyl)-5-oxo-4-[(2S)-3,3,3-trifluoro-2-hydroxypropyl]-4,5-dihydro-1H-1,2,4-triazol-1-yl}methyl)-1H-1,2,4-triazol-1-yl]-N-(cyclohexylmethyl)benzamide], in assay [1], the IC50 is 14.5 nM and the “ratio IC50 hV2/hV1a” value turned out to be 63.4. Also, the IC50 in assay [2] was found to be 920 nM.

For `CCCNC(=O)c1ccccc1-n1cnc(Cn2nc(-c3ccc(Cl)cc3)n(C[C@H](O)C(F)(F)F)c2=O)n1` [Example 320, 2-[3-({3-(4-Chlorophenyl)-5-oxo-4-[(2S)-3,3,3-trifluoro-2-hydroxypropyl]-4,5-dihydro-1H-1,2,4-triazol-1-yl}methyl)-1H-1,2,4-triazol-1-yl]-N-propylbenzamide], the IC50 was determined as 1.35 nM in assay [1] and 102 nM in assay [2]. Further, the “ratio IC50 hV2/hV1a” value in assay [1] was found to be 75.9.

Turning to `CC1CCC(NC(=O)c2ccccc2-n2cnc(Cn3nc(-c4ccc(Cl)cc4)n(C[C@H](O)C(F)(F)F)c3=O)n2)CC1` (stereo partly drawn) [Example 321, 2-[3-({3-(4-Chlorophenyl)-5-oxo-4-[(2S)-3,3,3-trifluoro-2-hydroxypropyl]-4,5-dihydro-1H-1,2,4-triazol-1-yl}methyl)-1H-1,2,4-triazol-1-yl]-N-(4-methylcyclohexyl)benzamide], in assay [1], the IC50 came to 13 nM and the “ratio IC50 hV2/hV1a” value was determined as 43.8. For the same molecule, the IC50 in assay [2] came out at 570 nM.

As to `CC(C)(C)CNC(=O)c1ccccc1-n1cnc(Cn2nc(-c3ccc(Cl)cc3)n(C[C@H](O)C(F)(F)F)c2=O)n1` [Example 322, 2-[3-({3-(4-Chlorophenyl)-5-oxo-4-[(2S)-3,3,3-trifluoro-2-hydroxypropyl]-4,5-dihydro-1H-1,2,4-triazol-1-yl}methyl)-1H-1,2,4-triazol-1-yl]-N-(2,2-dimethylpropyl)benzamide], in assay [1], the IC50 stood at 2.65 nM and the “ratio IC50 hV2/hV1a” value was determined as 103.8. Also, the IC50 in assay [2] was determined as 275 nM.

In the case of `Cc1ccccc1NC(=O)c1ccccc1-n1cnc(Cn2nc(-c3ccc(Cl)cc3)n(C[C@H](O)C(F)(F)F)c2=O)n1` [Example 323, 2-[3-({3-(4-Chlorophenyl)-5-oxo-4-[(2S)-3,3,3-trifluoro-2-hydroxypropyl]-4,5-dihydro-1H-1,2,4-triazol-1-yl}methyl)-1H-1,2,4-triazol-1-yl]-N-(2-methylphenyl)benzamide], in assay [1], the concentration for half-maximal inhibition (IC50) worked out at 2.05 nM and the “ratio IC50 hV2/hV1a” value came to 34.4. For the same molecule, the IC50 in assay [2] was 70.5 nM.

For the molecule `CC(C)N(C(=O)c1ccccc1-n1cnc(Cn2nc(-c3ccc(Cl)cc3)n(C[C@H](O)C(F)(F)F)c2=O)n1)C(C)C` [Example 324, 2-[3-({3-(4-Chlorophenyl)-5-oxo-4-[(2S)-3,3,3-trifluoro-2-hydroxypropyl]-4,5-dihydro-1H-1,2,4-triazol-1-yl}methyl)-1H-1,2,4-triazol-1-yl]-N,N-di(propan-2-yl)benzamide], in assay [1], the IC50 amounted to 14 nM and the “ratio IC50 hV2/hV1a” value stood at 117.9. The IC50 in assay [2] came to 1650 nM.
